Drawing on ChEMBL document CHEMBL1143256, “Design, synthesis and preliminary pharmacological evaluation of new piperidine and piperazine derivatives as cognition-enhancers” (2008), this text covers minimal effective dose for 31 compounds.

The test system of the experiment is Mus musculus. Put plainly: Antiamnesic activity in sc dosed mouse after 30 mins by passive avoidance test. It counts as functional. The settings on record: 0.5 h, read-out: MED.

Consider `CCCN1CCN(S(=O)(=O)c2ccc(F)cc2)CC1`, for which the minimal effective dose came out at 1 mg/kg. As for `CC(=O)N1CCN(C(=O)c2ccccc2)C(=O)C1`, the figure is 10 mg/kg; as for `CCC(=O)N1CCC(CNS(=O)(=O)c2ccc(F)cc2)CC1`, 1 mg/kg. As to `CCC(=O)N1CCCC(NS(=O)(=O)c2ccc(F)cc2)C1` (stereo unspecified), the minimal effective dose was determined as 10 mg/kg.

On to `CC(C)S(=O)(=O)NC1CCCN(C(=O)c2ccccc2)C1` (stereo unspecified), for which the minimal effective dose came out at 1 mg/kg. On to `CCC(=O)NC1CCCN(C(C)=O)C1` (stereo unspecified), for which the minimal effective dose is 1 mg/kg.

As to `CCC(=O)N1CCN(C(=O)c2ccccc2)CC1=O`, the minimal effective dose was 10 mg/kg.

Turning to `CCC(=O)NCC1CCCN(S(=O)(=O)c2ccc(F)cc2)C1` (stereo unspecified), the minimal effective dose came to 10 mg/kg. Then `CCC(=O)N1CCN(Cc2ccccc2)C(=O)C1`, with 10 mg/kg. With `CC(C)S(=O)(=O)N1CCCC(NS(=O)(=O)c2ccc(F)cc2)C1` (stereo unspecified), the minimal effective dose is 10 mg/kg. Take `CC(=O)N1CCN(S(=O)(=O)c2ccc(F)cc2)CC1=O`: the minimal effective dose turned out to be 0.3 mg/kg. Then `CCC(=O)N1CCN(S(=O)(=O)c2ccc(F)cc2)CC1=O`, with 0.3 mg/kg; and `CC(=O)N1CCN(C(=O)c2ccccc2)CC1=O`, with 10 mg/kg; and `CCC(=O)N1CCCC(NC(=O)c2ccccc2)C1` (stereo unspecified), with 1 mg/kg.

Consider `CCC(=O)NC1CCCN(S(=O)(=O)c2ccc(F)cc2)C1` (stereo unspecified), for which the minimal effective dose came out at 1 mg/kg. As to `CC(=O)NC1CCCN(S(=O)(=O)c2ccc(F)cc2)C1` (stereo unspecified), the minimal effective dose was 1 mg/kg.

As to `CCC(=O)N1CCN(Cc2ccccc2)CC1`, the minimal effective dose stood at 10 mg/kg.

As for `CC(=O)N1CCN(S(=O)(=O)c2ccc(F)cc2)CC1`, the minimal effective dose was 0.01 mg/kg.

With `CC(=O)N1CCC(NS(=O)(=O)c2ccc(F)cc2)CC1`, the minimal effective dose amounted to 0.1 mg/kg. As for `CC(=O)N1CCN(C(=O)c2ccccc2)CC1`, the figure is 10 mg/kg; as for `CC(C)S(=O)(=O)NC1CCCN(S(=O)(=O)c2ccc(F)cc2)C1` (stereo unspecified), 1 mg/kg; as for `O=S(=O)(NCC1CCN(S(=O)(=O)c2ccc(F)cc2)CC1)c1ccc(F)cc1`, 1 mg/kg. Take `CCC(=O)NCC1CCN(C(=O)c2ccccc2)CC1`: the minimal effective dose came out at 1 mg/kg. As for `CC(=O)NCC1CCCN(S(=O)(=O)c2ccc(F)cc2)C1` (stereo unspecified), the minimal effective dose was 10 mg/kg. Turning to `CC(=O)N1CCCC(NS(=O)(=O)c2ccc(F)cc2)C1` (stereo unspecified), the minimal effective dose came to 1 mg/kg. In the case of `CCC(=O)N1CCC(NS(=O)(=O)c2ccc(F)cc2)CC1`, the minimal effective dose turned out to be 10 mg/kg.

Consider `CCC(=O)NC1CCN(S(=O)(=O)c2ccc(F)cc2)CC1`, for which the minimal effective dose amounted to 0.1 mg/kg. For the compound `CCC(=O)NC1CCN(C(=O)c2ccccc2)CC1`, the minimal effective dose worked out at 0.1 mg/kg. As for `CCC(=O)N1CCN(S(=O)(=O)c2ccc(F)cc2)CC1`, the figure is 0.01 mg/kg.

Turning to `CC(=O)NC1CCN(S(=O)(=O)c2ccc(F)cc2)CC1` [SAPUNIFIRAM], the minimal effective dose came out at 0.01 mg/kg.

`CCC(=O)N1CCN(C(=O)c2ccccc2)CC1` [SUNIFIRAM]: the minimal effective dose is 0.001 mg/kg.
